Experiments:
Format in all cases: cell-based
Conditions in all cases: SPAP reporter
HPPARα = biological target: T1, HPPARα (Homo sapiens, UniProt Q07869); assay: Transient transfection (transactivation) assay, hPPAR alpha-GAL4 chimera in CV-1 cells
T1 construct: expressed in transfected cells; host or cells: CV-1 cells
T1 sequence (Q07869 239-466 limits assumed): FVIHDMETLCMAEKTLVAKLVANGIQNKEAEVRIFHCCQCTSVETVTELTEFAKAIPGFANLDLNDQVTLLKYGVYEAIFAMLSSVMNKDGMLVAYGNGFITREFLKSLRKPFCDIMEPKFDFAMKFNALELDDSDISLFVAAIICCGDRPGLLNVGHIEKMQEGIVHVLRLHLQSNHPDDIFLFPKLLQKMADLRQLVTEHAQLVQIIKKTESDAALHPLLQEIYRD
Source text: (§1) Compounds were screened for functional potency in transient transfection assays in CV-1 cells for their ability to activate the PPAR subtypes (transactivation assay). A previously established chimeric receptor system was utilized to allow comparison of the relative transcriptional activity of the receptor subtypes on the same target gene and to prevent endogenous receptor activation from complicating the interpretation of results. See, for example, Lehmann, J. M.; Moore, L. B.; Smith-Oliver, T. A.; Wilkison, W. O.; Willson, T. M.; Kliewer, S. A., An antidiabetic thiazolidinedione is a high affinity ligand for peroxisome proliferator-activated receptor gamma (PPARgamma), J. Biol. Chem., 270, 12953-6 (1995). The ligand binding domains for murine and human PPAR alpha, PPAR gamma, and PPAR delta were each fused to the yeast transcription factor GAL4 DNA binding domain. CV-1 cells were transiently transfected with expression vectors for the respective PPAR chimera along with a reporter construct containing five copies of the GAL4 DNA binding site driving expression of secreted placental alkaline phosphatase (SPAP) and beta-galactosidase. After 16 h, the medium was exchanged to DME medium supplemented with 10% delipidated fetal calf serum and the test compound at the appropriate concentration. […]

HPPARδ = biological target: T2, HPPARδ (Homo sapiens, UniProt Q03181); assay: Transient transfection (transactivation) assay, hPPAR delta-GAL4 chimera in CV-1 cells
T2 construct: expressed in transfected cells; host or cells: CV-1 cells
T2 sequence (Q03181 211-439 limits assumed): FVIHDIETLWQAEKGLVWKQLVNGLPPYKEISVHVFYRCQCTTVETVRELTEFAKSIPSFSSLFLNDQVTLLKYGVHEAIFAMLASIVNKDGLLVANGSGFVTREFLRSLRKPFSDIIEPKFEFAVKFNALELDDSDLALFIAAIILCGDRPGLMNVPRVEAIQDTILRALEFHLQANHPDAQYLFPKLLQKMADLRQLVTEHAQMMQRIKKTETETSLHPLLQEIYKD
Source text: as §1

HPPARγ = biological target: T3, HPPARγ (Homo sapiens, UniProt P37231); assay: Transient transfection (transactivation) assay, hPPAR gamma-GAL4 chimera in CV-1 cells
T3 construct: expressed in transfected cells; host or cells: CV-1 cells
T3 sequence (P37231 238-503 limits assumed): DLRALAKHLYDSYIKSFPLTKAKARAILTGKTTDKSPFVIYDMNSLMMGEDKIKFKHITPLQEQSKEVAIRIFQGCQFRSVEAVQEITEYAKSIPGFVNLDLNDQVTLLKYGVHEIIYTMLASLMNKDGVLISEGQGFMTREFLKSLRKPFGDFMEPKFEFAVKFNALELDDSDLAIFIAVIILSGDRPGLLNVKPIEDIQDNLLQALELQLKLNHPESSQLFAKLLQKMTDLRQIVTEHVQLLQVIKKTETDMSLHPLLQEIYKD
Source text: as §1

EC50 (HPPARα): 0.008 µM | EC50 (HPPARδ): 6.1 µM | EC50 (HPPARγ): 0.19 µM
SMILES: Cc1nc(C(=O)NCc2ccc(OC(C)(C)C(=O)O)cc2)sc1-c1ccc(C(C)C)cc1 [Example 1, 2-methyl-2-[(4-{[({4-methyl-5-[4-(1-methylethyl)phenyl]-1,3-thiazol-2-yl}carbonyl)amino]methyl}phenyl)oxy]propanoic acid]

Reference: US20070167628A1, “Thiazole-2-carboxamide derivatives for use as hippar agonists in the treatment of i.a. dyslipidemia” (priority 2003, published 2007)
